Common to all, as to assay type: cell-based
For data set [1], the system named is CFPAC-1 human pancreatic cancer cell line. The experiment in a line: Cytotoxicity of third-generation taxoids, CFPAC-1. Particulars: CFPAC-1 cells.
Data set [2] concerns PANC-1 human pancreatic cancer cell line. The data set is described as follows: Cytotoxicity of third-generation taxoids, PANC-1. To be noted: PANC-1 cells.
For data set [3], the system named is LCC6-MDR drug resistant (Pgp+) human breast cancer cell line. The data set is described as follows: Cytotoxicity of third-generation taxoids, LCC6-MDR. To be noted: LCC6-MDR cells.
For data set [4], the system named is ID8 murine ovarian cancer cell line. The experiment in a line: Cytotoxicity of third-generation taxoids, ID8. Particulars: ID8 cells.
Data set [5] relates to LCC6-WT. The experiment in a line: Cytotoxicity of third-generation taxoids, LCC6-WT. To be noted: LCC6-WT cells.
Data set [6] relates to MCF7 human breast cancer cell line. The data set is described as follows: Cytotoxicity of third-generation taxoids, MCF7. To be noted: MCF7 cells.
Data set [7] concerns NCI/ADR drug resistant (Pgp+) human ovarian cancer cell line. The data set is described as follows: Cytotoxicity of third-generation taxoids, NCI/ADR. To be noted: NCI/ADR-RES, NCI/ADR cells.

Molecules are shown by their SMILES.

One may read the IC50 as the concentration at which inhibition is half-maximal.

As to `CC(=O)O[C@@]12CO[C@@H]1C[C@H](O)[C@@]1(C)C(=O)[C@H](OC(=O)C3CC3)C3=C(C)[C@@H](OC(=O)[C@H](O)[C@H](CC(C)C)NC(=O)OC(C)(C)C)C[C@@](O)([C@@H](OC(=O)c4cccc(OC(F)(F)F)c4)[C@H]21)C3(C)C` [SB-T-111405, 2-Debenzoyl-2-(3-trifluromethoxybenzoyl)-3′-dephenyl-10-(cyclopropanecarbonyl)-3′-(2-methylpropyl)docetaxel], the half-inhibitory concentration (IC50) in data set [1] (Homo sapiens) worked out at 2.3 nM; in data set [2] (Homo sapiens), 0.56 nM; in data set [3] (Homo sapiens, LCC6MDR), 0.98 nM; in data set [4] (Mus musculus) it was 0.28 nM.

Turning to `C=C(C)CC(NC(=O)OC(C)(C)C)C(O)C(=O)OC1CC2(O)C(OC(=O)c3cccc(OC(F)(F)F)c3)C3C4(OC(C)=O)COC4CC(O)C3(C)C(=O)C(OC(C)=O)C(=C1C)C2(C)C` (stereo not shown) [SB-T-121205, 2-Debenzoyl-2-(3-trifluromethoxybenzoyl)-3′-dephenyl-10-acetyl-3′-(2-methyl-2-propenyl)docetaxel], the IC50 in data set [1] is 0.4 nM; in data set [5] it was 0.45 nM; in data set [2], 0.76 nM; in data set [6] it was 0.23 nM; in data set [4], 0.23 nM.

For the compound `C=C(C)CC(NC(=O)OC(C)(C)C)C(O)C(=O)OC1CC2(O)C(OC(=O)c3cccc(OC(F)F)c3)C3C4(OC(C)=O)COC4CC(O)C3(C)C(=O)C(OC(C)=O)C(=C1C)C2(C)C` (stereo not shown) [SB-T-121206, 2-Debenzoyl-2-(3-difluromethoxybenzoyl)-3′-dephenyl-10-acetyl-3′-(2-methyl-2-propenyl)docetaxel], the 50% inhibitory concentration (IC50) was 0.23 nM in data set [1]; 0.28 nM in data set [5]; 0.49 nM in data set [2]; 0.31 nM in data set [6]; 0.35 nM in data set [4].

Take `C=C(C)CC(NC(=O)OC(C)(C)C)C(O)C(=O)OC1CC2(O)C(OC(=O)c3cccc(OC(F)(F)F)c3)C3C4(OC(C)=O)COC4CC(O)C3(C)C(=O)C(OC(=O)CC)C(=C1C)C2(C)C` (stereo not shown) [SB-T-121305, 2-Debenzoyl-2-(3-trifluromethoxybenzoyl)-3′-dephenyl-10-propanoyl-3′-(2-methyl-2-propenyl)-docetaxel]: the 50% inhibitory concentration (IC50) in data set [1] was determined as 1.75 nM; in data set [5] it was 1.54 nM; in data set [2], 1.12 nM; in data set [6], 1.74 nM.

For the compound `C=C(C)C[C@H](NC(=O)OC(C)(C)C)[C@@H](O)C(=O)O[C@H]1C[C@@]2(O)[C@@H](OC(=O)c3cccc(OC(F)F)c3)[C@@H]3[C@]4(OC(C)=O)CO[C@@H]4C[C@H](O)[C@@]3(C)C(=O)[C@H](OC(=O)CC)C(=C1C)C2(C)C` [SB-T-121306, 2-Debenzoyl-2-(3-difluromethoxybenzoyl)-3′-dephenyl-10-propanoyl-3′-(2-methyl-2-propenyl)docetaxel], the IC50 came out at 0.17 nM in data set [1], 0.81 nM in data set [5], 0.49 nM in data set [2] and 0.54 nM in data set [6].

As for `CC(=O)O[C@@]12CO[C@@H]1C[C@H](O)[C@@]1(C)C(=O)[C@H](OC(=O)C3CC3)C3=C(C)[C@@H](OC(=O)[C@H](O)[C@H](C=C(C)C)NC(=O)OC(C)(C)C)C[C@@](O)([C@@H](OC(=O)c4cccc(OC(F)(F)F)c4)[C@H]21)C3(C)C` [SB-T-121405], the IC50 in data set [1] (Homo sapiens) was 0.36 nM; in data set [5] it was 1.01 nM; in data set [2] (Homo sapiens), 0.32 nM; in data set [6] (Homo sapiens), 0.98 nM; in data set [4] (Mus musculus), 0.33 nM.

In the case of `C=C(C)CC(NC(=O)OC(C)(C)C)C(O)C(=O)OC1CC2(O)C(OC(=O)c3cccc(OC(F)F)c3)C3C4(OC(C)=O)COC4CC(O)C3(C)C(=O)C(OC(=O)C3CC3)C(=C1C)C2(C)C` (stereo not shown) [SB-T-121406, 2-Debenzoyl-2-(3-difluromethoxybenzoyl)-3′-dephenyl-10-cyclopropanecarbonyl-3′-(2-methyl-2-propenyl)docetaxel], the IC50 turned out to be 0.31 nM in data set [1], 0.33 nM in data set [5], 0.75 nM in data set [2] and 0.29 nM in data set [6].

In the case of `C=C(C)CC(NC(=O)OC(C)(C)C)C(O)C(=O)OC1CC2(O)C(OC(=O)c3cccc(OC(F)(F)F)c3)C3C4(OC(C)=O)COC4CC(O)C3(C)C(=O)C(OC(=O)N(C)C)C(=C1C)C2(C)C` (stereo not shown) [SB-T-121605, 2-Debenzoyl-2-(3-trifluromethoxybenzoyl)-3′-dephenyl-10-(N,N-dimethylcarbamoyl)-3′-(2-methyl-2-propenyl)docetaxel], the IC50 amounted to 0.56 nM in data set [1], 0.54 nM in data set [2] and 0.25 nM in data set [4].

For `C=C(C)CC(NC(=O)OC(C)(C)C)C(O)C(=O)OC1CC2(O)C(OC(=O)c3cccc(OC(F)(F)F)c3)C3C4(OC(C)=O)COC4CC(O)C3(C)C(=O)C(OC(=O)OC)C(=C1C)C2(C)C` (stereo not shown) [SB-T-121705, 2-Debenzoyl-2-(3-trifluromethoxybenzoyl)-3′-dephenyl-10-(methoxycarbonyl)-3′-(2-methyl-2-propenyl)docetaxel], the IC50 in data set [1] worked out at 0.8 nM; in data set [5] it was 0.59 nM; in data set [2], 1.17 nM; in data set [6], 0.98 nM.

Regarding `C=C(C)CC(NC(=O)OC(C)(C)C)C(O)C(=O)OC1CC2(O)C(OC(=O)c3cccc(OC(F)F)c3)C3C4(OC(C)=O)COC4CC(O)C3(C)C(=O)C(OC(=O)OC)C(=C1C)C2(C)C` (stereo not shown) [SB-T-121706], the IC50 in data set [1] was determined as 0.15 nM; in data set [5], 0.46 nM; in data set [2], 1.06 nM; in data set [6] it was 0.12 nM.

Consider `C=C(C)CC(NC(=O)OC(C)(C)C)C(O)C(=O)OC1CC2(O)C(OC(=O)c3cccc(OC(F)(F)F)c3)C3C4(OC(C)=O)COC4CC(O)C3(C)C(=O)C(OC)C(=C1C)C2(C)C` (stereo not shown) [SB-T-123005, 2-Debenzoyl-2-(3-trifluromethoxybenzoyl)-10-methyl-3′-dephenyl-3′-(2-methyl-2-propenyl)-docetaxel], for which the IC50 in data set [1] stood at 7.3 nM; in data set [2], 0.87 nM; in data set [6] it was 2.46 nM; in data set [4], 1.43 nM.

For `C=C(C)CC(NC(=O)OC(C)(C)C)C(O)C(=O)OC1CC2(O)C(OC(=O)c3cccc(OC(F)(F)F)c3)C3C4(OC(C)=O)COC4CC(OC)C3(C)C(=O)C(OC)C(=C1C)C2(C)C` (stereo not shown) [SB-T-1230105, 2-Debenzoyl-2-(3-trifluromethoxybenzoyl)-7,10-dimethyl-3′-dephenyl-3′-(2-methyl-2-propenyl)-docetaxel], the values for the IC50 in data set [5], in data set [2] and in data set [3] were 0.55 nM, 0.98 nM and 6.98 nM, respectively.

Consider `C=C(C)CC(NC(=O)OC(C)(C)C)C(O)C(=O)OC1CC2(O)C(OC(=O)c3cccc(OC(F)F)c3)C3C4(OC(C)=O)COC4CC(OC)C3(C)C(=O)C(OC)C(=C1C)C2(C)C` (stereo not shown) [SB-T-1230106, 2-Debenzoyl-2-(3-difluromethoxybenzoyl)-7,10-dimethyl-3′-dephenyl-3′-(2-methyl-2-propenyl)-docetaxel], for which the values for the IC50 in data set [5] and in data set [3] were 0.72 nM and 4.7 nM, respectively.

Turning to `CC(=O)O[C@H]1C(=O)[C@@]2(C)[C@H]([C@H](OC(=O)c3ccccc3)[C@]3(O)C[C@H](OC(=O)[C@H](O)[C@@H](NC(=O)c4ccccc4)c4ccccc4)C(C)=C1C3(C)C)[C@]1(OC(C)=O)CO[C@@H]1C[C@@H]2O` [paclitaxel, reference compound], the half-maximal inhibitory concentration (IC50) in data set [1] (Homo sapiens) turned out to be 68 nM; in data set [7], 361 nM; in data set [5], 3.1 nM; in data set [2] (Homo sapiens), 3.78 nM; in data set [3] (Homo sapiens, LCC6MDR), 346 nM; in data set [6] (Homo sapiens), 3.13 nM. This compound also came in with a half-inhibitory concentration (IC50) in data set [4] (Mus musculus) of 2.02 nM.

For the origin of these results see patent publication US10550093B2, “Third generation taxoids and methods of using same” (The Research Foundation for the State University of New York, priority 2015, dated 2020).
